What was measured:
[1] = tested on: A2780 cells; assay: In-Vitro Cell Proliferation Assay (SRB, 72 hours); assay type: cell-based; conditions: Homo sapiens, A2780, 72 h, A2780 cells, 72 hours, sulforhodamine B; read-out: A2780 IC50
Procedure: After overnight incubation at 37° C. and 5% CO2, the compound titrations were performed in a separate dilution plate by serially diluting the compounds in DMSO to make a 1000× stock. The compounds were then further diluted to 10× final concentration in culture media, whereupon 20 μL of each dilution was added to the plated cells with controls (e.g. DMSO and blank) to make a final volume of 200 μL. The final DMSO concentration in each well was 0.1%. The plates were then incubated for 72 hours at 37° C. in a 5% CO2 incubator. The number of viable cells was then assessed using sulforhodamine B (SRB) assay. Cells were fixed at 4° C. for 1 hour with the addition of 50 μL 30% trichloroacetic acid (TCA) to make a final concentration of 6% TCA. The plates were washed four times with H2O and allowed to dry for at least 1 hour, whereupon 100 μL of a 4% SRB in 1% acetic acid solution was added to each well and incubated at room temperature for at least 30 minutes. The plates were then washed three times with 1% acetic acid, dried, and treated with 100 μL of 10 mM Tris-Base solution. The plates were then read in a microplate reader at an absorbance of 570 nm. Background was generated on a separate plate with media only.
First, the signals from the background plate are averaged and then the background was subtracted from the test plates.
wherein x denotes the average signal of the compound-treated cells and y denotes the average signal of the DMSO-treated cells.
wherein X denotes the compound concentration 1, Y denotes the compound concentration 2, XX denotes the % inhibition at compound concentration 1 (X), and YY denotes the % inhibition at compound concentration 2 (Y).

[2] = biological target: NAMPT (Homo sapiens (Human), UniProt P43490); assay: Biochemical Inhibition Assay (NAMPT enzymatic reaction, NMN quantified by mass spectrometry); conditions: recombinant His-tagged NAMPT, 33 nM; 1 μM NAM; read-out: Biochem IC50
Chain of NAMPT (P43490 whole entry): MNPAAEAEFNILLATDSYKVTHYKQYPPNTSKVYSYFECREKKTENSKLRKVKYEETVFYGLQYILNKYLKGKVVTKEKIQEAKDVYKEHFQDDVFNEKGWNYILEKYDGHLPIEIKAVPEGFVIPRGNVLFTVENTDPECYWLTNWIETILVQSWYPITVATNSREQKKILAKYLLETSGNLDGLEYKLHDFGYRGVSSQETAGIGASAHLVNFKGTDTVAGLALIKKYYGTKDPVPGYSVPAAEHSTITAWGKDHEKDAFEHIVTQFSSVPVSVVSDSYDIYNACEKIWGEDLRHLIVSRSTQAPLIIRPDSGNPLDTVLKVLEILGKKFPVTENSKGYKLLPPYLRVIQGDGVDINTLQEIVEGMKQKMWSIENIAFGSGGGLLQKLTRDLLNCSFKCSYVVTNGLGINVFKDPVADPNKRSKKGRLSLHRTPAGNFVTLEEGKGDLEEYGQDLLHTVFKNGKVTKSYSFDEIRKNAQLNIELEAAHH
Procedure: Recombinant His-tagged NAMPT was produced in E. coli cells, purified over a Ni column, and further purified over a size-exclusion column by XTAL Biostructures.
The NAMPT enzymatic reactions were carried out in Buffer A (50 mM Hepes pH 7.5, 50 mM NaCl, 5 mM MgCl2, and 1 mM THP) in 96-well V-bottom plates. The compound titrations were performed in a separate dilution plate by serially diluting the compounds in DMSO to make a 100× stock. […] The compound and enzyme mix was incubated for 15 minutes at room temperature, then 10 μL of 10× substrate and co-factors in Buffer A were added to the test well to make a final concentration of 1 μM NAM, 100 μM 5-Phospho-D-ribose 1-diphosphate (PRPP), and 2.5 mM Adenosine 5′-triphosphate (ATP). The reaction was allowed to proceed for 30 minutes at room temperature, then was quenched with the addition of 11 μL of a solution of formic acid and L-Cystathionine to make a final concentration of 1% formic acid and 10 μM L-Cystathionine. Background and signal strength was determined by addition (or non-addition) of a serial dilution of NMN to a pre-quenched enzyme and cofactor mix.
A mass spectrometry-based assay was used to measure the NAMPT reaction product (NMN) and the internal control (L-Cystathionine). NMN and L-Cystathionine were detected using the services of Biocius Lifesciences with the RapidFire system. In short, the NMN and L-Cystathionine are bound to a graphitic carbon cartridge in 0.1% formic acid, eluted in 30% acetonitrile buffer, and injected into a Sciex 4000 mass spectrometer. The components of the sample were ionized with electrospray ionization and the positive ions were detected. […] The fragments are quantified and the analyzed by the following method.
First the NMN signal is normalized to the L-Cystathionine signal by dividing the NMN signal by the L-Cystathionine signal for each well. The signal from the background wells are averaged and subtracted from the test plates.
Wherein x denotes the average signal of the compound treated wells and y denotes the average signal of the DMSO treated wells.
IC50s are Determined Using Excel and this Formula.
Wherein X denotes the compound concentration 1, Y denotes the compound concentration 2, XX denotes the % inhibition at compound concentration 1 (X), and YY denotes the % inhibition at compound concentration 2 (Y).

SMILES | IC50 [1] | IC50 [2]
COc1cc(Cl)cc(S(=O)(=O)c2ccc(NC(=O)/C=C/c3cccnc3)cc2)c1 [(2E)-N-{4-[(3-chloro-5-methoxybenzene)sulfonyl]phenyl}-3-(pyridin-3-yl)prop-2-enamide] | 100 nM | 22 nM
O=C(/C=C/c1cccnc1)Nc1ccc(S(=O)(=O)c2cc(Cl)cc(C(F)(F)F)c2)cc1 [(2E)-N-(4-{[3-chloro-5-(trifluoromethyl)benzene]sulfonyl}phenyl)-3-(pyridin-3-yl)prop-2-enamide] | 58.3 nM | 8.1 nM
Cc1cc(C(F)(F)F)ccc1S(=O)(=O)c1ccc(NC(=O)/C=C/c2cccnc2)cc1 [(2E)-N-(4-{[2-methyl-4-(trifluoromethyl)benzene]sulfonyl}phenyl)-3-(pyridin-3-yl)prop-2-enamide] | 100 to 1000 nM | 62.8 nM
O=C(/C=C/c1cccnc1)Nc1ccc(S(=O)(=O)c2ccccc2)cc1 [(2E)-N-[4-(benzenesulfonyl)phenyl]-3-(pyridin-3-yl)prop-2-enamide] | 81 nM | 4 nM
CC(C)Oc1cccc(S(=O)(=O)c2ccc(NC(=O)/C=C/c3cccnc3)cc2)c1 [(2E)-N-(4-{[3-(propan-2-yloxy)benzene]sulfonyl}phenyl)-3-(pyridin-3-yl)prop-2-enamide] | 48.9 nM | 1.1 nM
CC(C)NC(=O)c1cccc(S(=O)(=O)c2ccc(NC(=O)/C=C/c3cccnc3)cc2)c1 [N-(propan-2-yl)-3-({4-[(2E)-3-(pyridin-3-yl)prop-2-enamido]benzene}sulfonyl)benzamide] | 100 to 1000 nM | 17.6 nM
Cc1cncc(S(=O)(=O)c2ccc(NC(=O)/C=C/c3cccnc3)cc2)c1 [(2E)-N-[4-(5-methylpyridine-3-sulfonyl)phenyl]-3-(pyridin-3-yl)prop-2-enamide] | 74.4 nM | 18.1 nM
CCCOc1cccc(S(=O)(=O)c2ccc(NC(=O)/C=C/c3cccnc3)cc2)c1 [(2E)-N-{4-[(3-propoxybenzene)sulfonyl]phenyl}-3-(pyridin-3-yl)prop-2-enamide] | 86.8 nM | 21.6 nM
COc1cncc(S(=O)(=O)c2ccc(NC(=O)/C=C/c3cccnc3)cc2)c1 [(2E)-N-[4-(5-methoxypyridine-3-sulfonyl)phenyl]-3-(pyridin-3-yl)prop-2-enamide] | 86.3 nM | 15.6 nM
CC(C)CNC(=O)c1cccc(S(=O)(=O)c2ccc(NC(=O)/C=C/c3cccnc3)cc2)c1 [N-(2-methylpropyl)-3-({4-[(2E)-3-(pyridin-3-yl)prop-2-enamido]benzene}sulfonyl)benzamide] | 100 to 1000 nM | 21.3 nM
O=C(/C=C/c1cccnc1)Nc1ccc(S(=O)(=O)c2cccc(C(F)(F)F)c2)cc1 [(2E)-3-(pyridin-3-yl)-N-(4-{[3-(trifluoromethyl)benzene]sulfonyl}phenyl)prop-2-enamide] | 107 nM | 31.9 nM
Cn1ncc2cc(S(=O)(=O)c3ccc(NC(=O)/C=C/c4cccnc4)cc3)ccc21 [(2E)-N-[4-(1-methyl-1H-indazole-5-sulfonyl)phenyl]-3-(pyridin-3-yl)prop-2-enamide] | 97.6 nM | 1.9 nM
Cc1cc(C)n(-c2cccc(S(=O)(=O)c3ccc(NC(=O)/C=C/c4cccnc4)cc3)c2)n1 [(2E)-N-(4-{[3-(3,5-dimethyl-1H-pyrazol-1-yl)benzene]sulfonyl}phenyl)-3-(pyridin-3-yl)prop-2-enamide] | 31.9 nM | 9.1 nM
CCS(=O)(=O)Nc1cccc(S(=O)(=O)c2ccc(NC(=O)/C=C/c3cccnc3)cc2)c1 [(2E)-N-{4-[(3-ethanesulfonamidobenzene)sulfonyl]phenyl}-3-(pyridin-3-yl)prop-2-enamide] | 100 to 1000 nM | 8.1 nM
COc1cc(S(=O)(=O)c2ccc(NC(=O)/C=C/c3cccnc3)cc2)ccc1Cl [(2E)-N-{4-[(4-chloro-3-methoxybenzene)sulfonyl]phenyl}-3-(pyridin-3-yl)prop-2-enamide] | 72 nM | 26.3 nM

Reference: patent publication US9169209B2, “Compounds and compositions for the inhibition of NAMPT” (FORMA TM, LLC, priority 2011, dated 2015)
